The NIST ThermoML archive (doi:10.1016/j.fluid.2017.05.024)
Numbers after ± are expanded uncertainties.

How the values were obtained:
[1] = xn = mol fraction of the nth substance listed; details: 298.15 K, 100 kPa, Liquid, Vibrating tube method
[2] = 298.15 K, Liquid

With OCCO [1,2-ethanediol] + CCCC[N+](CCCC)(CCCC)CCCC.[Br-] as the compound, how does the mass density ([1]; x2 = 0) read?
The mass density was 1112.1 ± 1.4 kg/m3.

Which mass density ([1]; x1 = 0.2) does the source give for CCCC[N+](CCCC)(CCCC)CCCC.[Br-] [tetrabutylammonium bromide] + OCC(O)CO here?
The mass density was 1137.1 ± 1.3 kg/m3.

With CCCC[N+](CCCC)(CCCC)CCCC.[Br-] [tetrabutylammonium bromide] + OCCO as the compound, how does the mass density ([1]; x1 = 0.2) read?
The mass density was 1069.1 ± 1.2 kg/m3.

With c1c[nH]cn1 [1H-imidazole] + CCCC[N+](CCCC)(CCCC)CCCC.[Br-] as the compound, how does the mass density ([1]; x2 = 0.333) read?
Its mass density is 1092.2 ± 1 kg/m3.

Which mass density ([2]; 100 kPa, Vibrating tube method) does the source give for OCCO [1,2-ethanediol] here?
The mass density was 1112.1 ± 1.4 kg/m3.

With OCC(O)CO [glycerol] as the compound, how does the mass density ([2]; 101.33 kPa, Pycnometric method) read?
Its mass density is 1262 ± 2 kg/m3.
